Assay results published in patent publication US10045532B2, “Synergistic herbicidal mixtures for glyphosate-resistant volunteer corn control” (Valent U.S.A., Corporation, priority 2015, dated 2018).
Where a name gives a salt, the structure may show the parent alone.

Key:
Type in all cases: in vivo
[1] = system: glyphosate-resistant corn variety P1690; test: Foliar spray of corn at V7 stage in outdoor replicated field plots, corn variety P1690 (Example 2, Table 2); conditions: for percent control of glyphosate-resistant corn, 9 DAT / percent control of glyphosate-resistant corn, 16 DAT: variety P1690
Text: (§1) Two varieties of corn were foliarly sprayed with mixtures of ethyl [3-[2-chloro-4-fluoro-5-(1-methyl-6-trifluoromethyl-2,4-dioxo-1,2,3,4-tetrahydropyrimidin-3-yl)phenoxy]-2-pyridyloxy]acetate and the potassium salt of glyphosate in outdoor replicated field plots. In addition, mixtures of ethyl [3-[2-chloro-4-fluoro-5-(1-methyl-6-trifluoromethyl-2,4-dioxo-1,2,3,4-tetrahydropyrimidin-3-yl)phenoxy]-2-pyridyloxy]acetate and glufosinate, and N,N′-dimethyl-4,4′-bipyridinium dichloride alone were foliarly sprayed. One corn variety was glyphosate-resistant and the other variety was both glyphosate and glufosinate resistant. The corn plants were at the V7 (plants with seven leaves with visible collars, about 30 to 40 inches tall) stage of development at the time of treatment. Roundup® PowerMax (available from Monsanto Company) was used as the source of the potassium salt of glyphosate. The adjuvant non-ionic surfactant was applied with ethyl [3-[2-chloro-4-fluoro-5-(1-methyl-6-trifluoromethyl-2,4-dioxo-1,2,3,4-tetrahydropyrimidin-3-yl)phenoxy]-2-pyridyloxy]acetate. The effects of the treatments were observed and recorded 9 and 16 days after the treatments (“9 DAT” and “16 DAT”, respectively).

[2] = system: volunteer glyphosate-resistant corn; test: Foliar spray of glyphosate-resistant corn at V4 stage in outdoor replicated field plots (Example 1)
Text: Glyphosate-resistant corn was foliarly sprayed with mixtures of ethyl [3-[2-chloro-4-fluoro-5-(1-methyl-6-trifluoromethyl-2,4-dioxo-1,2,3,4-tetrahydropyrimidin-3-yl)phenoxy]-2-pyridyloxy]acetate and the potassium salt of glyphosate in outdoor replicated field plots. The corn was at the V4 (plants with four leaves with visible collars, about 6 to 8 inches tall) stage of development at the time of treatment. Roundup® PowerMax (available from Monsanto Company) was used as the source of the potassium salt of glyphosate. The adjuvant crop oil concentrate was applied with ethyl [3-[2-chloro-4-fluoro-5-(1-methyl-6-trifluoromethyl-2,4-dioxo-1,2,3,4-tetrahydropyrimidin-3-yl)phenoxy]-2-pyridyloxy]acetate. The effects of the treatments were observed and recorded 9 and 23 days after the treatments (“9 DAT” and “23 DAT”, respectively).

[3] = system: glyphosate-resistant and glufosinate-resistant corn variety 765-30; test: Foliar spray of corn at V7 stage in outdoor replicated field plots, corn variety 765-30 (Example 2, Table 3); conditions: for percent control of glyphosate-resistant and glufosinate-resistant corn, 9 DAT / percent control of glyphosate-resistant and glufosinate-resistant corn, 16 DAT: variety 765-30
Text: as §1

[4] = Treatment 8, 1260 g active/hectare
[5] = Treatment 2, 1054 g active/hectare
[6] = Treatment 18, 840 g active/hectare
[7] = Treatment 2, 1.25 g active/hectare
[8] = Treatment 3, 2.5 g active/hectare
[9] = Treatment 4, 5 g active/hectare
[10] = Treatment 5, 10 g active/hectare
[11] = Treatment 6, 20 g active/hectare
[12] = Treatment 7, 30 g active/hectare
[13] = Treatment 3, 5.6 g active/hectare
[14] = Treatment 4, 10.1 g active/hectare
[15] = Treatment 5, 20.2 g active/hectare
[16] = Treatment 6, 30.3 g active/hectare
[17] = Treatment 7, 40.3 g active/hectare
[18] = Treatment 15, 500 g active/hectare

O=C(O)CNCP(=O)(O)O [Glyphosate, potassium salt, reference compound]
percent control of glyphosate-resistant corn, 9 DAT [1, 4]: 0% | percent control of glyphosate-resistant corn, 16 DAT [1, 4]: 0% | activity against glyphosate-resistant corn when applied alone ([1]; applied alone, Table 2, variety P1690): no activity | percent control of volunteer glyphosate-resistant corn, 9 DAT [2, 5]: 0% | percent control of volunteer glyphosate-resistant corn, 23 DAT [2, 5]: 0% | activity against glyphosate-resistant corn when applied alone ([2]; applied alone, Table 1): no activity | percent control of glyphosate-resistant and glufosinate-resistant corn, 9 DAT [3, 4]: 0% | percent control of glyphosate-resistant and glufosinate-resistant corn, 16 DAT [3, 4]: 0% | activity against glyphosate-resistant corn when applied alone ([3]; applied alone, Table 3, variety 765-30): no activity

C[n+]1ccc(-c2cc[n+](C)cc2)cc1.[Cl-].[Cl-] [N,N′-dimethyl-4,4′-bipyridinium dichloride, reference compound]
percent control of glyphosate-resistant corn, 9 DAT [1, 6]: 84% | percent control of glyphosate-resistant corn, 16 DAT [1, 6]: 77.5% | percent control of glyphosate-resistant and glufosinate-resistant corn, 9 DAT [3, 6]: 81.3% | percent control of glyphosate-resistant and glufosinate-resistant corn, 16 DAT [3, 6]: 92.5%

CCOC(=O)COc1ncccc1Oc1cc(-n2c(=O)cc(C(F)(F)F)n(C)c2=O)c(F)cc1Cl [ethyl [3-[2-chloro-4-fluoro-5-(1-methyl-6-trifluoromethyl-2,4-dioxo-1,2,3,4-tetrahydropyrimidin-3-yl)phenoxy]-2-pyridyloxy]acetate]
percent control of glyphosate-resistant corn, 9 DAT [1, 7]: 16.15% | percent control of glyphosate-resistant corn, 16 DAT [1, 7]: 25% | percent control of glyphosate-resistant corn, 9 DAT [1, 8]: 49.78% | percent control of glyphosate-resistant corn, 16 DAT [1, 8]: 55% | percent control of glyphosate-resistant corn, 9 DAT [1, 9]: 44.48% | percent control of glyphosate-resistant corn, 16 DAT [1, 9]: 40% | percent control of glyphosate-resistant corn, 9 DAT [1, 10]: 57.6% | percent control of glyphosate-resistant corn, 16 DAT [1, 10]: 42.5% | percent control of glyphosate-resistant corn, 9 DAT [1, 11]: 81.8% | percent control of glyphosate-resistant corn, 16 DAT [1, 11]: 100% | percent control of glyphosate-resistant corn, 9 DAT [1, 12]: 95% | percent control of glyphosate-resistant corn, 16 DAT [1, 12]: 100% | percent control of volunteer glyphosate-resistant corn, 9 DAT [2, 13]: 68.78% | percent control of volunteer glyphosate-resistant corn, 23 DAT [2, 13]: 6.7% | percent control of volunteer glyphosate-resistant corn, 9 DAT [2, 14]: 95.75% | percent control of volunteer glyphosate-resistant corn, 23 DAT [2, 14]: 87.74% | percent control of volunteer glyphosate-resistant corn, 9 DAT [2, 15]: 99.89% | percent control of volunteer glyphosate-resistant corn, 23 DAT [2, 15]: 99.89% | percent control of volunteer glyphosate-resistant corn, 9 DAT [2, 16]: 100% | percent control of volunteer glyphosate-resistant corn, 23 DAT [2, 16]: 100% | percent control of volunteer glyphosate-resistant corn, 9 DAT [2, 17]: 100% | percent control of volunteer glyphosate-resistant corn, 23 DAT [2, 17]: 100% | percent control of glyphosate-resistant and glufosinate-resistant corn, 9 DAT [3, 7]: 16.15% | percent control of glyphosate-resistant and glufosinate-resistant corn, 16 DAT [3, 7]: 25% | percent control of glyphosate-resistant and glufosinate-resistant corn, 9 DAT [3, 8]: 49.78% | percent control of glyphosate-resistant and glufosinate-resistant corn, 16 DAT [3, 8]: 52.5% | percent control of glyphosate-resistant and glufosinate-resistant corn, 9 DAT [3, 9]: 42.3% | percent control of glyphosate-resistant and glufosinate-resistant corn, 16 DAT [3, 9]: 40% | percent control of glyphosate-resistant and glufosinate-resistant corn, 9 DAT [3, 10]: 57.6% | percent control of glyphosate-resistant and glufosinate-resistant corn, 16 DAT [3, 10]: 42.5% | percent control of glyphosate-resistant and glufosinate-resistant corn, 9 DAT [3, 11]: 81.8% | percent control of glyphosate-resistant and glufosinate-resistant corn, 16 DAT [3, 11]: 91.3% | percent control of glyphosate-resistant and glufosinate-resistant corn, 9 DAT [3, 12]: 95% | percent control of glyphosate-resistant and glufosinate-resistant corn, 16 DAT [3, 12]: 100%

CP(=O)(O)CCC(N)C(=O)O (stereo not drawn) [Glufosinate, reference compound]
percent control of glyphosate-resistant corn, 9 DAT [1, 18]: 92.7% | percent control of glyphosate-resistant corn, 16 DAT [1, 18]: 100% | percent control of glyphosate-resistant and glufosinate-resistant corn, 9 DAT [3, 18]: 3.8% | percent control of glyphosate-resistant and glufosinate-resistant corn, 16 DAT [3, 18]: 0%
